From patent publication US8471005B2 (Cephalon, Inc., priority 2008, dated 2013) come the findings set out here.

Each structure is given as a SMILES string.

For one test, the target named is T1, JAK2 (Homo sapiens, UniProt O60674).
T1 construct: host or cells: baculovirus expression system
Put plainly: Recombinant Human JAK2 Kinase Assay (TRF). Format: biochemical. Conditions: JAK2 kinase inhibition, 0.2 μM ATP; read-out: JAK2 Potency. In outline:
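Baculovirus-expressed JAK2 (15 ng/ml) phosphorylated a biotinylated 15-mer peptide captured on Neutravidin, in 20 mM HEPES pH 7.2, 0.2 μM ATP, 1 mM MnCl2, 0.1% BSA, 2.5% DMSO final, 20 min at room temperature. Phosphoproduct detected by time-resolved fluorescence with Eu-N1-labelled PY100 antibody.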

The next test addresses T2, ALK (Homo sapiens, UniProt Q9UM73).
T2 construct: host or cells: baculovirus expression system
The experiment in a line: ALK Kinase Assay (ELISA/TRF, PLC-γ substrate). Format: biochemical. The following applies: ALK kinase inhibition, 1 μM ATP; read-out: ALK Potency. In a few lines: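 PLC-γ coat 10 μg/mL in TBS; ALK 30 ng/ml added to start; 37° C, 15 min; Eu-N1 PT66 antibody detection (TRF). IC50: % inhibition vs log10 [cpd], variable-slope sigmoidal fit.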

T1 sequence (O60674 whole entry): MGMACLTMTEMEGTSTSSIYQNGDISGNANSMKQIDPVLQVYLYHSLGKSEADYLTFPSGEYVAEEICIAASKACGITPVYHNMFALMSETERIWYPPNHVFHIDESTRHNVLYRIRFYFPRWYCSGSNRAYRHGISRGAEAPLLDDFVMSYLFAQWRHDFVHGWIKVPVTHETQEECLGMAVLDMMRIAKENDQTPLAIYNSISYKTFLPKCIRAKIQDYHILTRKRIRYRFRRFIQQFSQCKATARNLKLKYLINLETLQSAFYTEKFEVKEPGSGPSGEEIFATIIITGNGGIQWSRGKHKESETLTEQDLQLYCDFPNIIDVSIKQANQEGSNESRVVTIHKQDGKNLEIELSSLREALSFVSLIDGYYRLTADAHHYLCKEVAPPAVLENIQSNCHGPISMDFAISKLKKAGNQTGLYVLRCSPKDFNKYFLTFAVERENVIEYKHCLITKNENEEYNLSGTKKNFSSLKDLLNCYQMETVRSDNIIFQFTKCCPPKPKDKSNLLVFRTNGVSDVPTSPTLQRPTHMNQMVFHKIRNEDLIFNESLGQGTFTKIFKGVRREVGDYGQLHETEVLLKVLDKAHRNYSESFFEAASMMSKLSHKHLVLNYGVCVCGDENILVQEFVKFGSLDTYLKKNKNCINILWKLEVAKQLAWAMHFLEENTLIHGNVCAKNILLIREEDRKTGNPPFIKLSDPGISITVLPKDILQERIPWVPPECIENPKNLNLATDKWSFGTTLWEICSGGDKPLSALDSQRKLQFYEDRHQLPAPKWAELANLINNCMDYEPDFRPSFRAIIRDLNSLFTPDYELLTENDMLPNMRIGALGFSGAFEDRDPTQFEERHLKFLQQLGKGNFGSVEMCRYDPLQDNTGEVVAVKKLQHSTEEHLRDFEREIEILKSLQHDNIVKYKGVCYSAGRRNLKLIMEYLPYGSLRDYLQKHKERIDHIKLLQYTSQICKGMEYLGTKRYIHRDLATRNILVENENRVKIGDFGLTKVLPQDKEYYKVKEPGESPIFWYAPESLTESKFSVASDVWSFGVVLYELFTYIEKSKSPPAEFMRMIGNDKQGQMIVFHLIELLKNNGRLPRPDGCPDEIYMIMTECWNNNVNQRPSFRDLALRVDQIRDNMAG
T2 sequence (Q9UM73 19-1620): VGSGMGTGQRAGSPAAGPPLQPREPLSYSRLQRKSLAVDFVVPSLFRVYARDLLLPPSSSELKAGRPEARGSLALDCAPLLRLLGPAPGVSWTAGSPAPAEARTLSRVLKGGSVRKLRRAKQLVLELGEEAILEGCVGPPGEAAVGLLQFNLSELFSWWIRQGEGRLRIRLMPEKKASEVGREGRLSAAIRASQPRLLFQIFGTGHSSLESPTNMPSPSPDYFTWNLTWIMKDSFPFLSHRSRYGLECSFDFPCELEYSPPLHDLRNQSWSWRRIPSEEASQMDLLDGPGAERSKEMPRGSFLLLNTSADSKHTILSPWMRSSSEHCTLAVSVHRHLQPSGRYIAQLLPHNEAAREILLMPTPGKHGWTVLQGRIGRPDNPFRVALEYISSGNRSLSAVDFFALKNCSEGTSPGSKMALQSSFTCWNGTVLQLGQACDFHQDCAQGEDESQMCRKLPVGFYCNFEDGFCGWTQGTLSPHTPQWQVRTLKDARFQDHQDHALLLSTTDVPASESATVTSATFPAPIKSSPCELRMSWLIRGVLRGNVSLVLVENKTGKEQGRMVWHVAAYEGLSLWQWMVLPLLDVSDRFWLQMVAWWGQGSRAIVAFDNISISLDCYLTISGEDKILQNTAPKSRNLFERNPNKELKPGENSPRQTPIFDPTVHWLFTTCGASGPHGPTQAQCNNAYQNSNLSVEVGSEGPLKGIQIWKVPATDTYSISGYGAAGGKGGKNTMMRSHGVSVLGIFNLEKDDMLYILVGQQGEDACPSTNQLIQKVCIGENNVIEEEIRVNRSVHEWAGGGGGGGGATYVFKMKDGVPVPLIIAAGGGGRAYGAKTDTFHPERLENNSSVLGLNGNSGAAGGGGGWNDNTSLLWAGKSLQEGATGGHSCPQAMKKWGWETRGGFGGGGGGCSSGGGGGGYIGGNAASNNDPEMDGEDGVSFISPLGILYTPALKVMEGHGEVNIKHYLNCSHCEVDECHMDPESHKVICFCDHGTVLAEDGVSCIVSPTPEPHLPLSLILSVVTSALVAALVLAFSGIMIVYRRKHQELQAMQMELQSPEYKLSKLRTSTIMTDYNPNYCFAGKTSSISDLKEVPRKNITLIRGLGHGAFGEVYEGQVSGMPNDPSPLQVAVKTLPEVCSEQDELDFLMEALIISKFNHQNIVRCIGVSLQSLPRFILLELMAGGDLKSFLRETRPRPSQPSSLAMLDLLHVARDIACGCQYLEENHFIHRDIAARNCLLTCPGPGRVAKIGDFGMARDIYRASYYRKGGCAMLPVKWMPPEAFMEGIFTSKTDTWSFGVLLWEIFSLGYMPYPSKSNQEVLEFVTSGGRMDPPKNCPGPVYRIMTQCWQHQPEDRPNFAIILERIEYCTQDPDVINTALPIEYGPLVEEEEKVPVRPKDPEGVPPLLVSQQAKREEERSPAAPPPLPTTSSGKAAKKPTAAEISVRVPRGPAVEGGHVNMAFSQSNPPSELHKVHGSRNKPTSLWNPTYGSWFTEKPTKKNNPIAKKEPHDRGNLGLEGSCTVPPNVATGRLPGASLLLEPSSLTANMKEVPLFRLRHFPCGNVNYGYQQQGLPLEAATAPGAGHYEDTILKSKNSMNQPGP

With `COc1cc(OC2CCN(C)CC2)ccc1Nc1ncc2ccc(-c3ccccc3N(C)S(C)(=O)=O)n2n1` [Example 999, N-(2-{2-[2-Methoxy-4-(1-methyl-piperidin-4-yloxy)-phenylamino]-pyrrolo[2,1-f][1,2,4]triazin-7-yl}-phenyl)-N-methyl-methanesulfonamide], the IC50 on JAK2 is 100 to 1000 nM; on ALK, below 100 nM.
On the same counts, the results for `CC(C)(C)NS(=O)(=O)c1cccc(-c2ccc3cnc(Nc4cccc(OCCN5CCOCC5)c4)nn23)c1` [Example 1001, N-tert-Butyl-3-{2-[3-(2-morpholin-4-yl-ethoxy)-phenylamino]-pyrrolo[2,1-f][1,2,4]triazin-7-yl}-benzenesulfonamide] are below 100 nM and 100 to 1000 nM.
For `CS(=O)(=O)Nc1ccccc1-c1ccc2cnc(Nc3cccc(OCCN4CCOCC4)c3)nn12` [Example 1002, N-(2-{2-[3-(2-Morpholin-4-yl-ethoxy)-phenylamino]-pyrrolo[2,1-f][1,2,4]triazin-7-yl}-phenyl)-methanesulfonamide], in that order: below 100 nM and 1000 to 10000 nM.
On the same counts, the results for `COc1ccccc1-c1ccc2cnc(Nc3cccc(OCCN4CCOCC4)c3)nn12` [Example 1003, [7-(2-Methoxy-phenyl)-pyrrolo[2,1-f][1,2,4]triazin-2-yl]-[3-(2-morpholin-4-yl-ethoxy)-phenyl]-amine] are below 100 nM and 100 to 1000 nM.
On to `Cn1cc(-c2ccc3cnc(Nc4cccc(OCCN5CCOCC5)c4)nn23)cn1` [Example 1004, [7-(1-Methyl-1H-pyrazol-4-yl)-pyrrolo[2,1-f][1,2,4]triazin-2-yl]-[3-(2-morpholin-4-yl-ethoxy)-phenyl]-amine], for which the IC50 on JAK2 is below 100 nM; on ALK, 1000 to 10000 nM.
For `CN1CCCC1COc1cccc(Nc2ncc3ccc(-c4cccc(S(=O)(=O)NC(C)(C)C)c4)n3n2)c1` (stereo not shown) [Example 1005, N-tert-Butyl-3-{2-[3-(1-methyl-pyrrolidin-2-ylmethoxy)-phenylamino]-pyrrolo[2,1-f][1,2,4]triazin-7-yl}-benzenesulfonamide], in that order: below 100 nM and below 100 nM.
On the same counts, the results for `COc1ccccc1-c1ccc2cnc(Nc3cccc(OCC4CCCN4C)c3)nn12` (stereo not shown) [Example 1006] are below 100 nM and below 100 nM.
For `CN1CCCC1COc1cccc(Nc2ncc3ccc(-c4cnn(C)c4)n3n2)c1` (stereo not shown) [Example 1007, [7-(1-Methyl-1H-pyrazol-4-yl)-pyrrolo[2,1-f][1,2,4]triazin-2-yl]-[3-(1-methyl-pyrrolidin-2-ylmethoxy)-phenyl]-amine], in that order: below 100 nM and 100 to 1000 nM.
`COc1ccccc1-c1ccc2cnc(Nc3ccc(C4CCN(C(=O)OC(C)(C)C)C4)cc3)nn12` (stereo not shown) [Example 1008, 3-{4-[7-(2-Methoxy-phenyl)-pyrrolo[2,1-f][1,2,4]triazin-2-ylamino]-phenyl}-pyrrolidine-1-carboxylic acid tert-butyl ester]: the IC50 is below 100 nM at JAK2 and 100 to 1000 nM on ALK.
On the same counts, the results for `CN1CCCC1COc1cc(Nc2ncc3ccc(-c4cccc(S(=O)(=O)NC(C)(C)C)c4)n3n2)ccc1Cl` (stereo not shown) [Example 1009, N-tert-Butyl-3-{2-[4-chloro-3-(1-methyl-pyrrolidin-2-ylmethoxy)-phenylamino]-pyrrolo[2,1-f][1,2,4]triazin-7-yl}-benzenesulfonamide] are below 100 nM and 100 to 1000 nM.
On the same counts, the results for `CN1CCCC1COc1cc(Nc2ncc3ccc(-c4ccccc4N(C)S(C)(=O)=O)n3n2)ccc1Cl` (stereo not shown) [Example 1010, N-(2-{2-[4-Chloro-3-(1-methyl-pyrrolidin-2-ylmethoxy)-phenylamino]-pyrrolo[2,1-f][1,2,4]triazin-7-yl}-phenyl)-N-methyl-methanesulfonamide] are below 100 nM and 100 to 1000 nM.
